Reference: patent US20230071978A1, “METHOD FOR TREATING IDH1 INHIBITOR-RESISTANT SUBJECTS” (Eli Lilly and Company, priority 2020, published 2023)

Legend:
R132H mutant IDH1 [1] = molecular target: T1, R132H mutant IDH1 (Homo sapiens, UniProt O75874, R132H); assay: 2-HG cell-based inhibition assay, U87MG R132H; details: Cell line construct U87MG R132H; 2-HG by LC-MS
T1 construct: myc; expressed in transfected cells; host or cells: Ba/F3 (DSMZ ACC 300), stably transfected
Description: (§1) Compounds and Formulation. […] DMSO preps are further diluted with cell culture media prior to addition in the assay.
(§2) Cell lines. U-87 MG cells (ATCC, HTB-14) are cultured and assayed in MEM (Gibco, 11095) with 2 mM GlutaMAX (Gibco, 35050), 1 mM Pyruvate (Gibco, 11360), 0.1 mM NEAA ((Non-essential amino acid) Gibco, 11140) and 10% dialyzed FBS (Fetal bovine serum) (Gibco, 26400). Ba/F3 cells (DSMZ, ACC 300) are cultured and assayed in RPMI 1640 (Gibco, 22400) with 10% heat inactivated FBS (Gibco, 10082-147) and 10 ng/ml mouse IL3 (R&D systems, 403-ML-025).
(§3) Cell-based inhibition assays. Cell-based assays are performed by measuring 2-HG in either U-87 MG cells or Ba/F3 cells in which IDH mutations are expressed.
(§4) DNA constructs encoding IDH1 mutations are introduced into U-87 MG cells using transfection (Promega FuGENE HD, E2311) or lentiviral transduction, and the IDH-mutant expressing cell lines are selected using blasticidin (5 μg/ml) or puromycin (1 μg/ml). […]
(§5) LC-MS metabolite analysis of conditioned media and cell lysates. The effect of inhibitors on the concentrations of 2-HG are determined by liquid chromatography-mass spectrometry (LC-MS) analysis of cell lysates or conditioned media using either a derivatization method or an ion-pairing method as described below. […]

R132H_S280F mutant IDH1 [2] = molecular target: T2, R132H_S280F mutant IDH1 (Homo sapiens, UniProt O75874, R132H/S280F); assay: 2-HG cell-based inhibition assay, U87MG R132H_S280F; details: Cell line construct U87MG R132H_S280F; 2-HG by LC-MS
T2 construct: myc; expressed in transfected cells; host or cells: Ba/F3 (DSMZ ACC 300), stably transfected
T2 sequence (O75874 whole entry R132H/S280F): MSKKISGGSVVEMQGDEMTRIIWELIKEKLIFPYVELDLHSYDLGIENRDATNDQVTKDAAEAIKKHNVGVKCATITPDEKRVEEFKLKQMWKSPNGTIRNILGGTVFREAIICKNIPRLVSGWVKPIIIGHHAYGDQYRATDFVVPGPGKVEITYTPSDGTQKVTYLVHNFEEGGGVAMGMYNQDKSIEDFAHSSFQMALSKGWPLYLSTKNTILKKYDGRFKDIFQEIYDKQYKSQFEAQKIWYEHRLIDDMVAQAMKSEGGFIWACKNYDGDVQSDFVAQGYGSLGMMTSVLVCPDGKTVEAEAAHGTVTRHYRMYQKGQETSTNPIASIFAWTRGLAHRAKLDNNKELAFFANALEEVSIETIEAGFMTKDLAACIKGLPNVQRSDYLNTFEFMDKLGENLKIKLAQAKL
Description: as §1, §2, §3, §4, §5

R132C_S280F mutant IDH1 [3] = molecular target: T3, R132C_S280F mutant IDH1 (Homo sapiens, UniProt O75874, R132C/S280F); assay: 2-HG cell-based inhibition assay, U87MG R132C_S280F; details: Cell line construct U87MG R132C_S280F; 2-HG by LC-MS
T3 construct: myc; expressed in transfected cells; host or cells: Ba/F3 (DSMZ ACC 300), stably transfected
T3 sequence (O75874 whole entry R132C/S280F): as the sequence (O75874 whole entry R132H/S280F) above, with H132C counted along it
Description: as §1, §2, §3, §4, §5

R132H mutant IDH1 [4] = molecular target: T1, R132H mutant IDH1; assay: 2-HG cell-based inhibition assay, Ba/F3 R132H; details: Cell line construct Ba/F3 R132H; 2-HG in conditioned media by LC-MS
Description: as §1, §3
Ba/F3 cells are transfected with DNA constructs encoding IDH1R132H-myc, IDH1R132H_S280E-myc, or IDH1R132C_S280E-myc constructs using NEON Transfection system (Life Technologies, MPK10025) and isolated using Puromycin (2 μg/mL) or Blasticidin (10 μg/mL). Stably transfected lines are used for inhibitor assays. […] Cells are treated with serial dilutions of the desired compounds in standard growth media. Plates are incubated in a mammalian cell culture incubator (humidified, 37° C., 5% CO2) for the desired time (72 or 96 hours). Following the incubation period, conditioned media from each well is collected for 2-HG analysis by LC-MS.
LC-MS metabolite analysis of conditioned media and cell lysates. The effect of inhibitors on the concentrations of 2-HG are determined by liquid chromatography-mass spectrometry (LC-MS) analysis of cell lysates or conditioned media using either a derivatization method or an ion-pairing method as described below.
For the derivatization LC-MS method, calibration curves are prepared by spiking 2-HG and α-KG into cell culture media and cell lysis buffer respectively. […]

R132H_S280F mutant IDH1 [5] = molecular target: T2, R132H_S280F mutant IDH1; assay: 2-HG cell-based inhibition assay, Ba/F3 R132H_S280F; details: Cell line construct Ba/F3 R132H_S280F; 2-HG in conditioned media by LC-MS
R132C_S280F mutant IDH1 [6] = molecular target: T3, R132C_S280F mutant IDH1; assay: 2-HG cell-based inhibition assay, Ba/F3 R132C_S280F; details: Cell line construct Ba/F3 R132C_S280F; 2-HG in conditioned media by LC-MS
IDH1R132H_H315D cis = molecular target: T4, IDH1R132H_H315D cis (Homo sapiens, UniProt O75874, H315D/R132H); assay: 2-HG cell-based inhibition assay, U87MG IDH1R132H_H315D cis; details: Cell line construct U87MG IDH1R132H_H315D cis; 2-HG by LC-MS
T4 construct: expressed in transfected cells; host or cells: U-87 MG (ATCC HTB-14)
T4 sequence (O75874 whole entry R132H/H315D): as the sequence (O75874 whole entry R132H/S280F) above, with F280S, H315D counted along it
Description: as §1, §2, §3, §4, §5

IDH1R132H_R119P cis = molecular target: T5, IDH1R132H_R119P cis (Homo sapiens, UniProt O75874, R119P/R132H); assay: 2-HG cell-based inhibition assay, U87MG IDH1R132H_R119P cis; details: Cell line construct U87MG IDH1R132H_R119P cis; 2-HG by LC-MS
T5 construct: expressed in transfected cells; host or cells: U-87 MG (ATCC HTB-14)
T5 sequence (O75874 whole entry R119P/R132H): as the sequence (O75874 whole entry R132H/S280F) above, with R119P, F280S counted along it
Description: as §1, §2, §3, §4, §5

IDH1R132H_G131A cis = molecular target: T6, IDH1R132H_G131A cis (Homo sapiens, UniProt O75874, G131A/R132H); assay: 2-HG cell-based inhibition assay, U87MG IDH1R132H_G131A cis; details: Cell line construct U87MG IDH1R132H_G131A cis; 2-HG by LC-MS
T6 construct: expressed in transfected cells; host or cells: U-87 MG (ATCC HTB-14)
T6 sequence (O75874 whole entry G131A/R132H): as the sequence (O75874 whole entry R132H/S280F) above, with G131A, F280S counted along it
Description: as §1, §2, §3, §4, §5

IDH1R132H_D279N cis = molecular target: T7, IDH1R132H_D279N cis (Homo sapiens, UniProt O75874, D279N/R132H); assay: 2-HG cell-based inhibition assay, U87MG IDH1R132H_D279N cis; details: Cell line construct U87MG IDH1R132H_D279N cis; 2-HG by LC-MS
T7 construct: expressed in transfected cells; host or cells: U-87 MG (ATCC HTB-14)
T7 sequence (O75874 whole entry R132H/D279N): as the sequence (O75874 whole entry R132H/S280F) above, with D279N, F280S counted along it
Description: as §1, §2, §3, §4, §5

IDH1R132C_H315D cis = molecular target: T8, IDH1R132C_H315D cis (Homo sapiens, UniProt O75874, H315D/R132C); assay: 2-HG cell-based inhibition assay, U87MG IDH1R132C_H315D cis; details: Cell line construct U87MG IDH1R132C_H315D cis; 2-HG by LC-MS
T8 construct: expressed in transfected cells; host or cells: U-87 MG (ATCC HTB-14)
T8 sequence (O75874 whole entry R132C/H315D): as the sequence (O75874 whole entry R132H/S280F) above, with H132C, F280S, H315D counted along it
Description: as §1, §2, §3, §4, §5

IDH1R132C_R119P cis = molecular target: T9, IDH1R132C_R119P cis (Homo sapiens, UniProt O75874, R119P/R132C); assay: 2-HG cell-based inhibition assay, U87MG IDH1R132C_R119P cis; details: Cell line construct U87MG IDH1R132C_R119P cis; 2-HG by LC-MS
T9 construct: expressed in transfected cells; host or cells: U-87 MG (ATCC HTB-14)
T9 sequence (O75874 whole entry R119P/R132C): as the sequence (O75874 whole entry R132H/S280F) above, with R119P, H132C, F280S counted along it
Description: as §1, §2, §3, §4, §5

IDH1R132C_G289D cis = molecular target: T10, IDH1R132C_G289D cis (Homo sapiens, UniProt O75874, G289D/R132C); assay: 2-HG cell-based inhibition assay, U87MG IDH1R132C_G289D cis; details: Cell line construct U87MG IDH1R132C_G289D cis; 2-HG by LC-MS
T10 construct: expressed in transfected cells; host or cells: U-87 MG (ATCC HTB-14)
T10 sequence (O75874 whole entry R132C/G289D): as the sequence (O75874 whole entry R132H/S280F) above, with H132C, F280S, G289D counted along it
Description: as §1, §2, §3, §4, §5

IDH1R132C_G131A cis = molecular target: T11, IDH1R132C_G131A cis (Homo sapiens, UniProt O75874, G131A/R132C); assay: 2-HG cell-based inhibition assay, U87MG IDH1R132C_G131A cis; details: Cell line construct U87MG IDH1R132C_G131A cis; 2-HG by LC-MS
T11 construct: expressed in transfected cells; host or cells: U-87 MG (ATCC HTB-14)
T11 sequence (O75874 whole entry G131A/R132C): as the sequence (O75874 whole entry R132H/S280F) above, with G131A, H132C, F280S counted along it
Description: as §1, §2, §3, §4, §5

IDH1R132C_D279N cis = molecular target: T12, IDH1R132C_D279N cis (Homo sapiens, UniProt O75874, D279N/R132C); assay: 2-HG cell-based inhibition assay, U87MG IDH1R132C_D279N cis; details: Cell line construct U87MG IDH1R132C_D279N cis; 2-HG by LC-MS
T12 construct: expressed in transfected cells; host or cells: U-87 MG (ATCC HTB-14)
T12 sequence (O75874 whole entry R132C/D279N): as the sequence (O75874 whole entry R132H/S280F) above, with H132C, D279N, F280S counted along it
Description: as §1, §2, §3, §4, §5

IDH1R132L_H315D cis = molecular target: T13, IDH1R132L_H315D cis (Homo sapiens, UniProt O75874, H315D/R132L); assay: 2-HG cell-based inhibition assay, U87MG IDH1R132L_H315D cis; details: Cell line construct U87MG IDH1R132L_H315D cis; 2-HG by LC-MS
T13 construct: expressed in transfected cells; host or cells: U-87 MG (ATCC HTB-14)
T13 sequence (O75874 whole entry R132L/H315D): as the sequence (O75874 whole entry R132H/S280F) above, with H132L, F280S, H315D counted along it
Description: as §1, §2, §3, §4, §5

IDH1R132L_R119P cis = molecular target: T14, IDH1R132L_R119P cis (Homo sapiens, UniProt O75874, R119P/R132L); assay: 2-HG cell-based inhibition assay, U87MG IDH1R132L_R119P cis; details: Cell line construct U87MG IDH1R132L_R119P cis; 2-HG by LC-MS
T14 construct: expressed in transfected cells; host or cells: U-87 MG (ATCC HTB-14)
T14 sequence (O75874 whole entry R119P/R132L): as the sequence (O75874 whole entry R132H/S280F) above, with R119P, H132L, F280S counted along it
Description: as §1, §2, §3, §4, §5

IDH1R132L_G289D cis = molecular target: T15, IDH1R132L_G289D cis (Homo sapiens, UniProt O75874, G289D/R132L); assay: 2-HG cell-based inhibition assay, U87MG IDH1R132L_G289D cis; details: Cell line construct U87MG IDH1R132L_G289D cis; 2-HG by LC-MS
T15 construct: expressed in transfected cells; host or cells: U-87 MG (ATCC HTB-14)
T15 sequence (O75874 whole entry R132L/G289D): as the sequence (O75874 whole entry R132H/S280F) above, with H132L, F280S, G289D counted along it
Description: as §1, §2, §3, §4, §5

IDH1R132L_G131A cis = molecular target: T16, IDH1R132L_G131A cis (Homo sapiens, UniProt O75874, G131A/R132L); assay: 2-HG cell-based inhibition assay, U87MG IDH1R132L_G131A cis; details: Cell line construct U87MG IDH1R132L_G131A cis; 2-HG by LC-MS
T16 construct: expressed in transfected cells; host or cells: U-87 MG (ATCC HTB-14)
T16 sequence (O75874 whole entry G131A/R132L): as the sequence (O75874 whole entry R132H/S280F) above, with G131A, H132L, F280S counted along it
Description: as §1, §2, §3, §4, §5

IDH1R132L_S280F cis = molecular target: T17, IDH1R132L_S280F cis (Homo sapiens, UniProt O75874, R132L/S280F); assay: 2-HG cell-based inhibition assay, U87MG IDH1R132L_S280F cis; details: Cell line construct U87MG IDH1R132L_S280F cis; 2-HG by LC-MS
T17 construct: expressed in transfected cells; host or cells: U-87 MG (ATCC HTB-14)
T17 sequence (O75874 whole entry R132L/S280F): as the sequence (O75874 whole entry R132H/S280F) above, with H132L counted along it
Description: as §1, §2, §3, §4, §5

IDH1R132L_D279N cis = molecular target: T18, IDH1R132L_D279N cis (Homo sapiens, UniProt O75874, D279N/R132L); assay: 2-HG cell-based inhibition assay, U87MG IDH1R132L_D279N cis; details: Cell line construct U87MG IDH1R132L_D279N cis; 2-HG by LC-MS
T18 construct: expressed in transfected cells; host or cells: U-87 MG (ATCC HTB-14)
T18 sequence (O75874 whole entry R132L/D279N): as the sequence (O75874 whole entry R132H/S280F) above, with H132L, D279N, F280S counted along it
Description: as §1, §2, §3, §4, §5

T1 sequence (O75874 whole entry R132H): as the sequence (O75874 whole entry R132H/S280F) above, with F280S counted along it

Question: Which results are given for `C=CC(=O)N1CCN([C@@H](CC2CC2)c2ccc([C@H](C)Nc3ncc4c(n3)N(CC)C(=O)OC4)cc2)CC1` [Compound A, 7-[[(1S)-1-[4-[(1S)-2-cyclopropyl-1-(4-prop-2-enoylpiperazin-1-yl)ethyl]phenyl]ethyl]amino]-1-ethyl-4H-pyrimido[4,5-d][1,3]oxazin-2-one]?
Answer: IC50 (R132H mutant IDH1 [1]): 0.32 nM; IC50 (R132H_S280F mutant IDH1 [2]): 2.58 nM; IC50 (R132C_S280F mutant IDH1 [3]): 12.5 nM; IC50 (R132H mutant IDH1 [4]): 0.11 nM; IC50 (R132H_S280F mutant IDH1 [5]): 1.13 nM; IC50 (R132C_S280F mutant IDH1 [6]): 1.53 nM; IC50 (IDH1R132H_H315D cis): 1.49 nM; IC50 (IDH1R132H_R119P cis): 2.52 nM; IC50 (IDH1R132H_G131A cis): 5.89 nM; IC50 (IDH1R132H_D279N cis): 13.8 nM; IC50 (IDH1R132C_H315D cis): 1.33 nM; IC50 (IDH1R132C_R119P cis): 10.5 nM; IC50 (IDH1R132C_G289D cis): 23.5 nM; IC50 (IDH1R132C_G131A cis): 25.6 nM; IC50 (IDH1R132C_D279N cis): 102 nM; IC50 (IDH1R132L_H315D cis): 5.07 nM; IC50 (IDH1R132L_R119P cis): 89.7 nM; IC50 (IDH1R132L_G289D cis): 29.4 nM; IC50 (IDH1R132L_G131A cis): 64.5 nM; IC50 (IDH1R132L_S280F cis): 179 nM; IC50 (IDH1R132L_D279N cis): 645 nM
